Measured values from patent US9340577B2, “HLA binding motifs and peptides and their uses” (priority 1992, dated 2016).
No end group written: not given here.

Tests used:
Experiment in all cases: biochemical
Type in all cases: binding
[1] = target: A*0202 (Homo sapiens, UniProt P04439, D140Y/D185E/D98H/E176V/E277Q/G131W/G231S/I119L/I121R/I166T/I218V/L180W/L300P/L318F/N151K/N90K/P208A/P217A/Q67R/Q86G/Q94H/R138H/R169H/T345S)
[2] = target: HLA-A*0201 (HLA-A2.1) (Homo sapiens, UniProt P04439, D140Y/D185E/D98H/E176V/E277Q/G131W/G231S/I119V/I121R/I166T/I218V/L300P/L318F/N151K/N90K/P208A/P217A/Q86G/Q94H/R138H/R169H/T345S)
[3] = target: A*0206 (Homo sapiens, UniProt P04439, D140Y/D185E/D98H/E176V/E277Q/F33Y/G131W/G231S/I119V/I121R/I166T/I218V/L300P/L318F/N151K/N90K/P208A/P217A/Q86G/Q94H/R138H/R169H/T345S)
[4] = target: A*0203 (Homo sapiens, UniProt P04439, A173T/D140Y/D185E/D98H/E277Q/G131W/G231S/I119V/I121R/I166T/I218V/L180W/L300P/L318F/N151K/N90K/P208A/P217A/Q86G/Q94H/R138H/R169H/T345S)
[5] = target: A*6802 (Homo sapiens, UniProt P04439, A269V/D140Y/D185E/E176V/E277Q/E87N/F33Y/G231S/I121R/I166T/I218V/L180W/L300P/L318F/N151K/P208A/P217A/Q86R/R138H/R169H/S129P/T345S/V36M)

| Compound | IC50 [1] [nM] | IC50 [2] [nM] | IC50 [3] [nM] | IC50 [4] [nM] | IC50 [5] [nM] |
| --- | --- | --- | --- | --- | --- |
| CC(C)[C@H](NC(=O)[C@@H](NC(=O)[C@H](CC(N)=O)NC(=O)[C@H](CCC(N)=O)NC(=O)[C@H](C)NC(=O)[C@H](CCC(=O)O)NC(=O)[C@@H]1CCCN1C(=O)[C@H](CCC(=O)O)NC(=O)[C@H](CS)NC(=O)[C@@H](NC(=O)[C@@H](N)Cc1ccccc1)[C@@H](C)O)[C@@H](C)O)C(=O)O [Peptide 9013.0323] | 29 | 336 | 920 | 86 | – |
| CC[C@H](C)[C@H](NC(=O)CN)C(=O)N[C@@H](CCSC)C(=O)N[C@H](C(=O)NCC(=O)N[C@H](C(=O)N[C@@H](CC(C)C)C(=O)N[C@H](C(=O)NCC(=O)N[C@H](C(=O)N[C@H](C(=O)O)C(C)C)C(C)C)C(C)C)C(C)C)[C@@H](C)CC [Peptide 9013.0344] | – | 563 | 912 | 82 | – |
| AIFGVNPTV [Peptide 1578.25] | 21 | 205 | 96 | 92 | – |
| ALYSWLIDGNI [Peptide 9013.0315] | 3.6 | 25 | 92 | 7 | – |
| AQYSWFVNGV [Peptide 9013.0172] | 1.2 | – | 13 | 2.4 | 12000 |
| AQYSWLIDGNV [Peptide 9013.0314] | 62 | – | 70 | 48 | 15600 |
| ELLLLVHNL [Peptide 9013.0022] | 1880 | – | 7180 | > 20000 | – |
| FLGALKSFL [Peptide 1578.11] | 0.3 | 719 | 1720 | 2.1 | – |
| FLQGCIISYA [Peptide 1578.18] | 2.6 | 93 | 241 | 9 | – |
| GLLVGVALI [Peptide 9013.0111] | 89 | 158 | 206 | 13 | – |
| GTFQQSTQEV [Peptide 9013.0175] | 157 | > 20000 | 2050 | 431 | – |
| GVLVGVALV [Peptide 9013.0110] | 6090 | 946 | 56 | 472 | – |
| ILIGVLVGVAL [Peptide 9013.0347] | – | 1520 | 120 | 1010 | > 20000 |
| ILNIIQNDT [Peptide 9013.0033] | – | > 20000 | > 20000 | 8010 | > 20000 |
| ITVNNSGSYV [Peptide 9013.0187] | 334 | > 20000 | 1010 | 255 | – |
| KLLEKLLCI [Peptide 1578.15] | – | – | 51 | 15 | > 20000 |
| KVTIESTPFNV [Peptide 9013.0265] | – | 2580 | 93 | 40 | 1550 |
| LIQPYSIYA [Peptide 86.0202] | – | 1400 | 428 | 2110 | 3300 |
| LLIESTPFNV [Peptide 9013.0128] | 4 | 16 | 62 | 8.1 | – |
| LLLVHNLPQHV [Peptide 9013.0275] | – | 4820 | 5140 | 652 | > 20000 |
| LQGAIISFV [Peptide 1578.28] | 6.6 | 42 | 20 | 11 | – |
| LTFWNPPTV [Peptide 9013.0006] | 17 | 3.4 | 5.2 | 2.3 | – |
| NLLYGPDDPTI [Peptide 9013.0310] | – | 9880 | > 20000 | 8650 | > 20000 |
| NLTVNNSGSYT [Peptide 9013.0303] | > 20000 | > 20000 | > 20000 | > 20000 | – |
| NVAEGKEVLV [Peptide 9013.0133] | 1140 | > 20000 | > 20000 | 19600 | – |

| Compound | IC50 [1] [nM] | IC50 [2] [nM] | IC50 [3] [nM] | IC50 [4] [nM] | IC50 [5] [nM] |
| --- | --- | --- | --- | --- | --- |
| QLSNGNRTV [Peptide 9013.0095] | – | 15100 | > 20000 | 54 | > 20000 |
| RLQLSNGNRV [Peptide 9013.0224] | – | 17600 | > 20000 | 669 | > 20000 |
| RTLQQLLFA [Peptide 1525.18] | – | 948 | 18 | 394 | > 20000 |
| RVLQQLLFI [Peptide 1545.01] | – | 27 | 8.5 | 24 | 10600 |
| SLMKFLQGSV [Peptide 1578.04] | 31 | 436 | 1450 | 4.6 | – |
| SLPVSPRLQV [Peptide 9013.0222] | – | 7310 | > 20000 | 155 | > 20000 |
| TIESTPFNVV [Peptide 9013.0130] | – | 15600 | 3230 | 671 | 305 |
| TLDATYLWWV [Peptide 9013.0158] | 137 | 61 | 155 | 468 | – |
| TLELFIPNI [Peptide 9013.0060] | – | 29 | 84 | 398 | – |
| TLGIMIGVL [Peptide 9013.0108] | – | 7420 | 9060 | 1700 | > 20000 |
| TLVLFIAKI [Peptide 9013.0106] | – | 16600 | 29 | 21 | 13000 |
| TLVTTITVYA [Peptide 9013.0193] | 11 | 781 | 1740 | 57 | – |
| TLYAHIQCL [Peptide 1578.26] | 4.9 | 269 | 420 | 9.4 | – |
| TQELFIPNV [Peptide 9013.0059] | – | 308 | 55 | 3320 | 4930 |
| TQVLFIAKV [Peptide 9013.0105] | – | 1040 | 46 | 27 | – |
| TVELFIPNITV [Peptide 9013.0300] | – | 8210 | 1640 | > 20000 | 193 |
| TVESTPFNV [Peptide 9013.0013] | 1910 | 17200 | 2390 | 6160 | – |
| VLAEAMSAA [Peptide 1516.11] | – | 24 | 10 | 0.87 | 474 |
| VLFTCEPET [Peptide 9013.0045] | – | 2540 | > 20000 | 502 | > 20000 |
| WLRLLLTASL [Peptide 9013.0116] | – | 8820 | 17400 | 32 | 19800 |
| WLRLLLTASLL [Peptide 9013.0254] | – | 3480 | 11800 | 12 | > 20000 |
| WQRLLLTASV [Peptide 9013.0115] | – | 5110 | 2230 | 36 | > 20000 |
| YTLHVIKSDV [Peptide 9013.0151] | – | 4370 | 54 | 972 | 16 |
| YVCGIQNSVSV [Peptide 9013.0337] | – | – | 58 | 159 | – |
